This is an account of results in patent US10213433B2 (AbbVie Inc., priority 2010, dated 2019).

Some results are limits rather than exact numbers.

Sequence of Bcl-2 protein (P10415 whole entry): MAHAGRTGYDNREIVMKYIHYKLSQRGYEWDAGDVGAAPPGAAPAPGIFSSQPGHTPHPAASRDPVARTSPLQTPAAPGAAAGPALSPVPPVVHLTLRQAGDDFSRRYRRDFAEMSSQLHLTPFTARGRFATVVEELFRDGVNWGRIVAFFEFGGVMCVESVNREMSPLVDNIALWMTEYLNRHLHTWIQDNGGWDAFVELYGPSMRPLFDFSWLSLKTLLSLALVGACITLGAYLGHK

The experiment concerns the target Bcl-2 protein (Homo sapiens (Human), UniProt P10415). Kind of experiment: Bcl-2 binding TR-FRET (Time-Resolved Fluorescence-Resonance-Energy-Transfer) assay. As to conditions: inhibition constant for binding to Bcl-2 protein. An excerpt: The smaller the Ki value, the greater is the binding affinity.
(Time-resolved FRET reads energy transfer from a long-lived donor to a nearby acceptor.)
The term Ki denotes a measure of affinity in units of concentration, obtained from inhibition or displacement. On to `CC1(C)CCC(CN2CCN(c3ccc(C(=O)NS(=O)(=O)c4ccc(N[C@H]5CCN(C6CCOCC6)C5)c([N+](=O)[O-])c4)c(Oc4cnc5[nH]ccc5c4)c3)CC2)=C(c2ccc(Cl)cc2)C1` [Compound 132, 4-(4-{[2-(4-chlorophenyl)-4,4-dimethylcyclohex-1-en-1-yl]methyl}piperazin-1-yl)-N-[(3-nitro-4-{[(3S)-1-tetrahydro-2H-pyran-4-ylpyrrolidin-3-yl]amino}phenyl)sulfonyl]-2-(1H-pyrrolo[2,3-b]pyridin-5-yloxy)benzamide], for which the Ki is less than 10 pM.

As for `CC1(C)CCC(CN2CCN(c3ccc(C(=O)NS(=O)(=O)c4ccc(NC[C@H]5CN(C6CC6)CCO5)c([N+](=O)[O-])c4)c(Oc4cnc5[nH]ccc5c4)c3)CC2)=C(c2ccc(Cl)cc2)C1` [Compound 327, 4-(4-{[2-(4-chlorophenyl)-4,4-dimethylcyclohex-1-en-1-yl]methyl}piperazin-1-yl)-N-{[4-({[(2S)-4-cyclopropylmorpholin-2-yl]methyl}amino)-3-nitrophenyl]sulfonyl}-2-(1H-pyrrolo[2,3-b]pyridin-5-yloxy)benzamide], the Ki was less than 10 pM.

Turning to `O=C(NS(=O)(=O)c1ccc(NCC2CN(C3CC3)CCO2)c([N+](=O)[O-])c1)c1ccc(N2CCN(CC3=C(c4ccc(Cl)cc4)CC4(CC3)CC4)CC2)cc1Oc1cnc2[nH]ccc2c1` (stereo not drawn) [Compound 330, 4-(4-{[5-(4-chlorophenyl)spiro[2.5]oct-5-en-6-yl]methyl}piperazin-1-yl)-N-[(4-{[(4-cyclopropylmorpholin-2-yl)methyl]amino}-3-nitrophenyl)sulfonyl]-2-(1H-pyrrolo[2,3-b]pyridin-5-yloxy)benzamide], the Ki is less than 10 pM.

On to `CC(C)(CO)CNc1ccc(S(=O)(=O)NC(=O)c2ccc(N3CCN(CC4=C(c5ccc(Cl)cc5)CC(C)(C)CC4)CC3)cc2Oc2cnc3[nH]ccc3c2)cc1[N+](=O)[O-]` [Compound 146, 4-(4-{[2-(4-chlorophenyl)-4,4-dimethylcyclohex-1-en-1-yl]methyl}piperazin-1-yl)-N-({4-[(3-hydroxy-2,2-dimethylpropyl)amino]-3-nitrophenyl}sulfonyl)-2-(1H-pyrrolo[2,3-b]pyridin-5-yloxy)benzamide], for which the Ki was less than 10 pM.

As to `CC1(C)CCC(CN2CCN(c3ccc(C(=O)NS(=O)(=O)c4ccc(NCC5CCN(S(C)(=O)=O)C5)c([N+](=O)[O-])c4)c(Oc4cnc5[nH]ccc5c4)c3)CC2)=C(c2ccc(Cl)cc2)C1` (stereo not drawn) [Compound 152, 4-(4-{[2-(4-chlorophenyl)-4,4-dimethylcyclohex-1-en-1-yl]methyl}piperazin-1-yl)-N-{[4-({[1-(methylsulfonyl)pyrrolidin-3-yl]methyl}amino)-3-nitrophenyl]sulfonyl}-2-(1H-pyrrolo[2,3-b]pyridin-5-yloxy)benzamide], the Ki is less than 10 pM.

In turn, `CC1(C)CC(c2ccc(Cl)cc2)=C(CN2CCN(c3ccc(C(=O)NS(=O)(=O)c4ccc(OCC5COCCO5)c([N+](=O)[O-])c4)c(Oc4cnc5[nH]ccc5c4)c3)CC2)CO1` (stereo not drawn) [Compound 32, 4-(4-{[4-(4-chlorophenyl)-6,6-dimethyl-5,6-dihydro-2H-pyran-3-yl]methyl}piperazin-1-yl)-N-{[4-(1,4-dioxan-2-ylmethoxy)-3-nitrophenyl]sulfonyl}-2-(1H-pyrrolo[2,3-b]pyridin-5-yloxy)benzamide] showed a Ki of less than 10 pM.

As to `CC(C)N1CCC2(CCC(c3ccc(Cl)cc3)=C(CN3CCN(c4ccc(C(=O)NS(=O)(=O)c5ccc(NCC6CCOCC6)c([N+](=O)[O-])c5)c(Oc5cnc6[nH]ccc6c5)c4)CC3)C2)CC1` [Compound 266, 4-(4-{[9-(4-chlorophenyl)-3-isopropyl-3-azaspiro[5.5]undec-8-en-8-yl]methyl}piperazin-1-yl)-N-({3-nitro-4-[(tetrahydro-2H-pyran-4-ylmethyl)amino]phenyl}sulfonyl)-2-(1H-pyrrolo[2,3-b]pyridin-5-yloxy)benzamide], the Ki was less than 10 pM.

For `CC1(C)CCC(CN2CCN(c3ccc(C(=O)NS(=O)(=O)c4ccc(NC5CCN(C(C)(C)C)CC5)c([N+](=O)[O-])c4)c(Oc4cnc5[nH]ccc5c4)c3)CC2)=C(c2ccc(Cl)cc2)C1` [Compound 227, N-({4-[(1-tert-butylpiperidin-4-yl)amino]-3-nitrophenyl}sulfonyl)-4-(4-{[2-(4-chlorophenyl)-4,4-dimethylcyclohex-1-en-1-yl]methyl}piperazin-1-yl)-2-(1H-pyrrolo[2,3-b]pyridin-5-yloxy)benzamide], the Ki is less than 10 pM.

Take `CC1(C)CCC(CN2CCN(c3ccc(C(=O)NS(=O)(=O)c4ccc(NC5CCS(=O)(=O)CC5)c([N+](=O)[O-])c4)c(Oc4cnc5[nH]ccc5c4)c3)CC2)=C(c2ccc(Cl)cc2)C1` [Compound 81, 4-(4-{[2-(4-chlorophenyl)-4,4-dimethylcyclohex-1-en-1-yl]methyl}piperazin-1-yl)-N-({4-[(1,1-dioxidotetrahydro-2H-thiopyran-4-yl)amino]-3-nitrophenyl}sulfonyl)-2-(1H-pyrrolo[2,3-b]pyridin-5-yloxy)benzamide]: the Ki was less than 10 pM.

In turn, `CC1(C)CCC(CN2CCN(c3ccc(C(=O)NS(=O)(=O)c4ccc(NC(=O)N5CCOCC5)c([N+](=O)[O-])c4)c(Oc4cnc5[nH]ccc5c4)c3)CC2)=C(c2ccc(Cl)cc2)C1` [Compound 373, N-(4-{[4-(4-{[2-(4-chlorophenyl)-4,4-dimethylcyclohex-1-en-1-yl]methyl}piperazin-1-yl)-2-(1H-pyrrolo[2,3-b]pyridin-5-yloxy)benzoyl]sulfamoyl}-2-nitrophenyl)morpholine-4-carboxamide] gave a Ki of less than 1 pM.

In turn, `CC1(C)CCC(CN2CCN(c3ccc(C(=O)NS(=O)(=O)c4ccc(OC[C@@H]5COCCO5)c([N+](=O)[O-])c4)c(Oc4cnc5[nH]ccc5c4)c3)CC2)=C(c2ccc(Cl)cc2)C1` [Compound 28, 4-(4-{[2-(4-chlorophenyl)-4,4-dimethylcyclohex-1-en-1-yl]methyl}piperazin-1-yl)-N-({4-[(2S)-1,4-dioxan-2-ylmethoxy]-3-nitrophenyl}sulfonyl)-2-(1H-pyrrolo[2,3-b]pyridin-5-yloxy)benzamide] yielded an inhibitory constant (Ki) of less than 10 pM.

In the case of `CC1(C)CCC(CN2CCN(c3ccc(C(=O)NS(=O)(=O)c4ccc(NC5CCN(C6CC6)CC5)c([N+](=O)[O-])c4)c(Oc4cnc5[nH]ccc5c4)c3)CC2)=C(c2ccc(Cl)cc2)C1` [Compound 98, 4-(4-{[2-(4-chlorophenyl)-4,4-dimethylcyclohex-1-en-1-yl]methyl}piperazin-1-yl)-N-({4-[(1-cyclopropylpiperidin-4-yl)amino]-3-nitrophenyl}sulfonyl)-2-(1H-pyrrolo[2,3-b]pyridin-5-yloxy)benzamide], the Ki was less than 10 pM.

On to `CC1(C)CCC(CN2CCN(c3ccc(C(=O)NS(=O)(=O)c4ccc(OCC5(F)CCN(C6CC6)CC5)c([N+](=O)[O-])c4)c(Oc4cnc5[nH]ccc5c4)c3)CC2)=C(c2ccc(Cl)cc2)C1` [Compound 173, 4-(4-{[2-(4-chlorophenyl)-4,4-dimethylcyclohex-1-en-1-yl]methyl}piperazin-1-yl)-N-({4-[(1-cyclopropyl-4-fluoropiperidin-4-yl)methoxy]-3-nitrophenyl}sulfonyl)-2-(1H-pyrrolo[2,3-b]pyridin-5-yloxy)benzamide], for which the Ki is less than 10 pM.

`CC1(C)CCC(CN2CCN(c3ccc(C(=O)NS(=O)(=O)c4ccc(NC5CCC(N(CCC#N)C6CC6)CC5)c([N+](=O)[O-])c4)c(Oc4cnc5[nH]ccc5c4)c3)CC2)=C(c2ccc(Cl)cc2)C1` (stereo not drawn) [Compound 340, 4-(4-{[2-(4-chlorophenyl)-4,4-dimethylcyclohex-1-en-1-yl]methyl}piperazin-1-yl)-N-{[4-({4-[(2-cyanoethyl)(cyclopropyl)amino]cyclohexyl}amino)-3-nitrophenyl]sulfonyl}-2-(1H-pyrrolo[2,3-b]pyridin-5-yloxy)benzamide] had a Ki of less than 10 pM.

`CC1(C)CCC(CN2CCN(c3ccc(C(=O)NS(=O)(=O)c4ccc(N[C@@H]5CCN(C6CCOCC6)C5)c([N+](=O)[O-])c4)c(Oc4cnc5[nH]ccc5c4)c3)CC2)=C(c2ccc(Cl)cc2)C1` [Compound 130, 4-(4-{[2-(4-chlorophenyl)-4,4-dimethylcyclohex-1-en-1-yl]methyl}piperazin-1-yl)-N-[(3-nitro-4-{[(3R)-1-tetrahydro-2H-pyran-4-ylpyrrolidin-3-yl]amino}phenyl)sulfonyl]-2-(1H-pyrrolo[2,3-b]pyridin-5-yloxy)benzamide] returned a Ki of less than 10 pM.

`CC1(C)CCC(CN2CCN(c3ccc(C(=O)NS(=O)(=O)c4ccc(N[C@H]5CC[C@@H](NC6CC6)CC5)c([N+](=O)[O-])c4)c(Oc4cnc5[nH]ccc5c4)c3)CC2)=C(c2ccc(Cl)cc2)C1` [Compound 122, cis-4-(4-{[2-(4-chlorophenyl)-4,4-dimethylcyclohex-1-en-1-yl]methyl}piperazin-1-yl)-N-[(4-{[4-(cyclopropylamino)cyclohexyll]amino}-3-nitrophenyl)sulfonyll]-2-(1H-pyrrolo[2,3-b]pyridin-5-yloxy)benzamide] registered a Ki of less than 10 pM.

`CC1(C)CCC(CN2CCN(c3ccc(C(=O)NS(=O)(=O)c4cnc(OCC5(F)CCN(CC(F)F)CC5)c(Cl)c4)c(Oc4cnc5[nH]ccc5c4)c3)CC2)=C(c2ccc(Cl)cc2)C1` [Compound 285, N-[(5-chloro-6-{[1-(2,2-difluoroethyl)-4-fluoropiperidin-4-yl]methoxy}pyridin-3-yl)sulfonyl]-4-(4-{[2-(4-chlorophenyl)-4,4-dimethylcyclohex-1-en-1-yl]methyl}piperazin-1-yl)-2-(1H-pyrrolo[2,3-b]pyridin-5-yloxy)benzamide] gave a Ki of less than 10 pM.

In turn, `CC1(C)CCC(CN2CCN(c3ccc(C(=O)NS(=O)(=O)c4ccc(NC5CCN(C6CCOC(C)(C)C6)CC5)c([N+](=O)[O-])c4)c(Oc4cnc5[nH]ccc5c4)c3)CC2)=C(c2ccc(Cl)cc2)C1` (stereo not drawn) [Compound 141, 4-(4-{[2-(4-chlorophenyl)-4,4-dimethylcyclohex-1-en-1-yl]methyl}piperazin-1-yl)-N-[(4-{[1-(2,2-dimethyltetrahydro-2H-pyran-4-yl)piperidin-4-yl]amino}-3-nitrophenyl)sulfonyl]-2-(1H-pyrrolo[2,3-b]pyridin-5-yloxy)benzamide] yielded a Ki of less than 10 pM.
